From patent US20150126467A1, “USE OF ALGINATE OLIGOMERS TO ENHANCE THE EFFECTS OF ANTIFUNGAL AGENTS” (AlgiIPharma AS, priority 2011, published 2015)
Like-named read-outs stand apart in the source and are kept apart here.

Experiments:
C. albicans CCUG 39343 = test: Robotic MIC assay, Candida strains (Example 2); type: cell-based; details: Candida albicans, CCUG39343, 48 h, Mueller-Hinton broth, read-out: Minimum Inhibitory Concentration (MIC)
Procedure: (§1) A robotic MIC Assay was performed as follows. OligoG CF-5/20 were dissolved in medium (Mueller-Hinton broth or M19 broth depending on experiment) to 1.25 times of the desired assay concentrations (2, 6 and 10%). The antifungal agents under test were dissolved in medium without OligoG CF-5/20 and in medium with OligoG CF-5/20 at a concentration of 1.25 times the highest desired assay concentrations. For experiments where the effect of adding different concentrations of Na^+ was investigated, NaCl was dissolved in medium to the desired concentrations (10, 30 and 50 mM).
(§2) Two-fold serial dilutions of antifungal agents were made in medium with different concentrations of OligoG CF-5/20, and the solutions were placed in four parallel wells in Nunc 384-well micro plates (30 μl per well in Nunc 242757 microplates). A group of 8 wells with no addition of antifungal agents for each OligoG CF-5/20 concentration was included on each microplate as growth reference. To each well in the 384-well assay plates was added 7.5 μl of medium inoculated with a frozen stock culture of Candida albicans (strain CCUG 39343).
(§3) The micro plates were placed in plastic bags and incubated without shaking at 34° C. The optical density at 600 nm in the microwells was measured after approximately 13, 18, 24 and 34 hours of incubation, and the relative growth yield in each well was calculated based on the growth in the reference groups.
(§4) The robotic assay described in Example 1 was employed in this Example. Strains were grown in Mueller-Hinton broth (LAB114 from Lab M Limited) and MIC values (μg ml-1) were determined for each antifungal after incubation for 48 h in the presence of 0, 2, 6 and 10% OligoG CF-5/20 G-fragments. […] OligoG CF-5/20 G-fragments were provided by AlgiPharma AS, Norway.
(§5) Candida strains used were as follows: • C. albicans CCUG 39343 (strain from culture collection) • C. parapsillosis ATCC 22019T (strain from culture collection) • C. krusei 141/03 (candidosis) • C. krusei 249/03(2) (ulceration) • C. lusitaniae 994/01(2) (candidosis) • C. tropicalis 12 (vaginal) • C. tropicalis 75 (vaginal) • C. tropicalis 519468 (urinary) • C. tropicalis 544123 (urinary) • C. tropicalis 250/03 (candidosis) • C. tropicalis AG1 (oral) • C. tropicalis T2.2 (oral)

[1] = test system: C. krusei 141/03 (candidosis); test: Robotic MIC assay, Candida strains (Example 2); type: cell-based; details: Pichia kudriavzevii, 48 h, Mueller-Hinton broth, read-out: Minimum Inhibitory Concentration (MIC)
Procedure: as §1, §2, §3, §4, §5

[2] = test system: C. krusei 249/03(2) (ulceration); test: Robotic MIC assay, Candida strains (Example 2); type: cell-based; details: Pichia kudriavzevii, 48 h, Mueller-Hinton broth, read-out: Minimum Inhibitory Concentration (MIC)
Procedure: as §1, §2, §3, §4, §5

[3] = test system: C. lusitaniae 994/01(2) (candidosis); test: Robotic MIC assay, Candida strains (Example 2); type: cell-based; details: Clavispora lusitaniae, 48 h, Mueller-Hinton broth, read-out: Minimum Inhibitory Concentration (MIC)
Procedure: as §1, §2, §3, §4, §5

[4] = test system: C. tropicalis 12 (vaginal); test: Robotic MIC assay, Candida strains (Example 2); type: cell-based; details: Candida tropicalis, 48 h, Mueller-Hinton broth, read-out: Minimum Inhibitory Concentration (MIC)
Procedure: as §1, §2, §3, §4, §5

[5] = test system: C. tropicalis 250/03 (candidosis); test: Robotic MIC assay, Candida strains (Example 2); type: cell-based; details: Candida tropicalis, 48 h, C. tropicalis 250/03 Candiosis, Mueller-Hinton broth, read-out: Minimum Inhibitory Concentration (MIC)
Procedure: as §1, §2, §3, §4, §5

[6] = test system: C. tropicalis 519468 (urinary); test: Robotic MIC assay, Candida strains (Example 2); type: cell-based; details: Candida tropicalis, 48 h, Mueller-Hinton broth, read-out: Minimum Inhibitory Concentration (MIC)
Procedure: as §1, §2, §3, §4, §5

[7] = test system: C. tropicalis 544123 (urinary); test: Robotic MIC assay, Candida strains (Example 2); type: cell-based; details: Candida tropicalis, 48 h, Mueller-Hinton broth, read-out: Minimum Inhibitory Concentration (MIC)
Procedure: as §1, §2, §3, §4, §5

[8] = test system: C. tropicalis 75 (vaginal); test: Robotic MIC assay, Candida strains (Example 2); type: cell-based; details: Candida tropicalis, 48 h, Mueller-Hinton broth, read-out: Minimum Inhibitory Concentration (MIC)
Procedure: as §1, §2, §3, §4, §5

C. tropicalis AG1 (oral) = test: Robotic MIC assay, Candida strains (Example 2); type: cell-based; details: Candida tropicalis, 48 h, Mueller-Hinton broth, read-out: Minimum Inhibitory Concentration (MIC)
Procedure: as §1, §2, §3, §4, §5

[9] = test system: C. tropicalis T2.2 (oral); test: Robotic MIC assay, Candida strains (Example 2); type: cell-based; details: Candida tropicalis, 48 h, Mueller-Hinton broth, read-out: Minimum Inhibitory Concentration (MIC)
Procedure: as §1, §2, §3, §4, §5

[10] = test system: C. parapsillosis ATCC 22019T; test: Robotic MIC assay, Candida strains (Example 2); type: cell-based, Candida parapsilosis; details: Lodderomyces parapsilosis, ATCC22019, 48 h, Mueller-Hinton broth, read-out: Minimum Inhibitory Concentration (MIC)
Procedure: as §1, §2, §3, §4, §5

[11] = test system: various Aspergillus species; test: Robotic MIC assay, summary over species (Example 4); type: cell-based; details: Aspergillus species tested
Procedure: Aspergillus sp. was grown at 30° C. for 96 h on YM-agar. Spores and aerial mycelium was cut out from the agar, suspended in 1 ml YM-broth and dispersed with glass beads (1 mm) in a mini bead beater for 2 min. Glycerol was added to the suspension to 10% and frozen at −80° C.
Each batch of frozen stock culture was then characterized in separate growth experiments using Mueller-Hinton broth to determine the minimum amount of inoculum giving satisfactory growth after 48 h under the conditions relevant for the MIC assay. This inoculation procedure is used in order to reduce day to day variation in bioassays.
Robotic minimum inhibitory concentration (MIC) assay was performed as follows. OligoG CF-5/20 was dissolved in medium (Mueller-Hinton broth) to 1.25 times of the desired assay concentrations (2, 6 and 10%). […].
Two-fold serial dilutions of antifungal agents were made in medium with different concentrations of OligoG CF-5/20, and the solutions were placed in four parallel wells in Nunc 384-well micro plates (30 μl per well in Nunc 242757 microplates). A group of 8 wells with no addition of antifungal agents for each OligoG CF-5/20 concentration was included on each micro plate as growth reference. Each well in the 384-well assay plates was added 7.5 μl of the MH medium inoculated with frozen stock culture of the relevant strains.
The microplates were placed in plastic bags and incubated without shaking at 34° C. The optical density at 600 nm in the microwells was measured after approximately 24 and 48 hours of incubation. […]

CN(C/C=C/C#CC(C)(C)C)Cc1cccc2ccccc12 [Terbinafine, terbinafine]
32 µg/mL: MIC ([4]; 10% OligoG) | MIC (C. tropicalis AG1 (oral); 2% OligoG) | MIC ([9]; 10% OligoG)
> 32 µg/mL: MIC (C. albicans CCUG 39343; 0% OligoG) | MIC (C. albicans CCUG 39343; 2% OligoG) | MIC (C. albicans CCUG 39343; 6% OligoG) | MIC (C. albicans CCUG 39343; 10% OligoG) | MIC ([1]; 0% OligoG) | MIC ([1]; 2% OligoG) | MIC ([1]; 6% OligoG) | MIC ([1]; 10% OligoG) | MIC ([4]; 0% OligoG) | MIC ([4]; 6% OligoG) | MIC ([5]; 0% OligoG) | MIC ([5]; 2% OligoG) | MIC ([5]; 6% OligoG) | MIC ([5]; 10% OligoG) | MIC ([6]; 0% OligoG) | MIC ([6]; 2% OligoG) | MIC ([6]; 6% OligoG) | MIC ([6]; 10% OligoG) | MIC ([7]; 0% OligoG) | MIC ([7]; 2% OligoG) | MIC ([7]; 6% OligoG) | MIC ([7]; 10% OligoG) | MIC ([8]; 0% OligoG) | MIC ([8]; 2% OligoG) | MIC ([8]; 6% OligoG) | MIC ([8]; 10% OligoG) | MIC (C. tropicalis AG1 (oral); 0% OligoG) | MIC (C. tropicalis AG1 (oral); 6% OligoG) | MIC (C. tropicalis AG1 (oral); 10% OligoG) | MIC ([9]; 0% OligoG) | MIC ([9]; 2% OligoG) | MIC ([9]; 6% OligoG)
4 µg/mL: MIC ([2]; 0% OligoG) | MIC ([2]; 2% OligoG) | MIC ([2]; 10% OligoG) | MIC ([3]; 2% OligoG) | MIC ([3]; 6% OligoG)
1 µg/mL: MIC ([10]; 2% OligoG) | MIC ([10]; 10% OligoG)
2 µg/mL: MIC ([3]; 10% OligoG) | MIC ([10]; 0% OligoG) | MIC ([10]; 6% OligoG)
reduction in MIC values: effect of addition of OligoG CF-5/20 on MIC values [11]
8 µg/mL: MIC ([2]; 6% OligoG) | MIC ([3]; 0% OligoG)
16 µg/mL: MIC ([4]; 2% OligoG)
